Measured values as given in publication PMC7414322 (Bioorganic & Medicinal Chemistry Letters, 2020).
Read-outs that look alike come from different tables or passages of the source.

What was measured:
[1] = system: MERS-CoV
[2] = system: Vero
[3] = system: HFL-1
[4] = system: L929
[5] = system: NIH 3T3
[6] = target: hERG (Homo sapiens, UniProt Q12809)
[7] = human, microsomes
[8] = system: CHO-K1
[9] = in vivo; conditions: rat, po, 5 mg/kg
[10] = mouse, microsomes

Chain of hERG (Q12809 whole entry): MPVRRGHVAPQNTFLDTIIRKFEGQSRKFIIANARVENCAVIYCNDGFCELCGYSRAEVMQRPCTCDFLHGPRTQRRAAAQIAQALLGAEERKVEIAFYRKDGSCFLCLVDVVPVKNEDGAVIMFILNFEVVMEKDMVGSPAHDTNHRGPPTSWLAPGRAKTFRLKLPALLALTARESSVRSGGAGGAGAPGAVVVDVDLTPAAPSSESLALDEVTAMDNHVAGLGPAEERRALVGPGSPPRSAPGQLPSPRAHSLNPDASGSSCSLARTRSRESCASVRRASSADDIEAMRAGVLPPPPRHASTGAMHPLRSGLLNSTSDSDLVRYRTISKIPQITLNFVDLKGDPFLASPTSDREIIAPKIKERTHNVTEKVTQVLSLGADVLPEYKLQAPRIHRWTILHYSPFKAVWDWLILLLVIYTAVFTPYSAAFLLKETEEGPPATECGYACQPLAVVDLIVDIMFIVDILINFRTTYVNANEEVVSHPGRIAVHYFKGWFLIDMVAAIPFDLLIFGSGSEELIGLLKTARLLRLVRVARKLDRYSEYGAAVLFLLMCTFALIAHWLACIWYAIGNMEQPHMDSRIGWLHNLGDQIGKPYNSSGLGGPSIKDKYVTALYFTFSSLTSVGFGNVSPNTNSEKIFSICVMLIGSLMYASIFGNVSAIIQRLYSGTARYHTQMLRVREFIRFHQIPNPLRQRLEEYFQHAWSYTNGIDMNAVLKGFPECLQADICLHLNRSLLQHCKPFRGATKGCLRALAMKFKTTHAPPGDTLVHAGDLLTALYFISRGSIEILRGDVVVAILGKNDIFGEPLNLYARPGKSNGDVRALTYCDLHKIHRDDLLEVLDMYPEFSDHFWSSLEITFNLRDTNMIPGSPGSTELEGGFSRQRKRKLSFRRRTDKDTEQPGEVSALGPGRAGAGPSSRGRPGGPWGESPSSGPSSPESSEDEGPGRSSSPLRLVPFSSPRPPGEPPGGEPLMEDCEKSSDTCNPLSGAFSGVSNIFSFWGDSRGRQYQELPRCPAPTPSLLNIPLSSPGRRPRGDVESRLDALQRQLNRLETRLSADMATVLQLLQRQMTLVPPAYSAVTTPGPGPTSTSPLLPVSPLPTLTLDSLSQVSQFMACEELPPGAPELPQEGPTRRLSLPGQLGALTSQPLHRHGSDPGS

SMILES: COc1cccc(CNc2ccc3ncnc(Nc4ccc(Br)cc4)c3c2)c1 [Compound 6]
- Inhibitory effect on MERS-CoV infection, in words [1]: maintained the potency

SMILES: COc1cccc(CNc2ccc3ncnc(Nc4ccc(F)cc4)c3c2)c1 [Compound 7]
- Inhibitory effect on MERS-CoV infection, in words [1]: reduced potency compared to 1

SMILES: COc1cccc(CNc2ccc3ncnc(Nc4cccc(Cl)c4)c3c2)c1 [Compound 8]
- Inhibitory effect on MERS-CoV infection, in words [1]: reduced potency compared to 1

SMILES: COc1cccc(CNc2ccc3ncnc(Nc4ccc(C#N)cc4)c3c2)c1 [Compound 9]
- Inhibitory effect on MERS-CoV infection, in words [1]: reduced potency compared to 1

SMILES: COc1cccc(CNc2ccc3ncnc(Nc4ccc(C(F)(F)F)cc4)c3c2)c1 [Compound 11]
- Inhibitory effect on MERS-CoV infection, in words [1]: slightly improve the potency

SMILES: N#Cc1ccccc1CNc1ccc2ncnc(Nc3ccc(F)c(Cl)c3)c2c1 [Compound 19]
- Inhibitory effect on MERS-CoV infection, in words [1]: no inhibitory effect

SMILES: N#Cc1cccc(CNc2ccc3ncnc(Nc4ccc(F)c(Cl)c4)c3c2)c1 [Compound 20]
- Cytotoxicity, in words [2]: no cytotoxicity
- Cytotoxicity Vero ([2]; African green monkey): >100 µM
- Cytotoxicity, in words [3]: no cytotoxicity
- Cytotoxicity HFL-1 ([3]; human): >100 µM
- Cytotoxicity, in words [4]: no cytotoxicity
- Cytotoxicity L929 ([4]; mouse): >100 µM
- Cytotoxicity, in words [5]: no cytotoxicity
- Cytotoxicity NIH 3T3 ([5]; mouse): >100 µM
- hERG binding, in words [6]: no hERG binding
- Microsomal stability, in words [7]: good microsomal stability
- Cytotoxicity, in words [8]: no cytotoxicity
- Cytotoxicity CHO-K1 ([8]; Chinese hamster): >100 µM
- Cmax [9]: 200 ng/mL
- Microsomal stability, in words [10]: good microsomal stability

SMILES: Fc1ccc(Nc2ncnc3ccc(NC4CCCCC4)cc23)cc1Cl [Compound 25]
- Inhibitory effect on MERS-CoV infection, in words [1]: little inhibitory effects

SMILES: N#Cc1cccc(CNc2cc3c(Nc4ccc(F)c(Cl)c4)ncnc3cc2O)c1 [Compound 30]
- Inhibitory effect on MERS-CoV infection, in words [1]: no inhibitory effects

SMILES: N#Cc1ccccc1CNc1ccc2ncnc(Nc3ccc(C(F)(F)F)cc3)c2c1 [Compound 31]
- Inhibitory effect on MERS-CoV infection, in words [1]: decreased potency
